Like-named read-outs stand apart in the source and are kept apart here.
Columns and labels:
INS-1 cells [1] = assay type: cell-based, rat; settings: for cell viability values: 24 hours, INS-1 cells, control 100±3.3%
Experimental: (§1) INS-1 cell strain from rat origin used in the studies was proliferated by performing routine passages once per week. The cells were grown under 1 atm pressure, in the incubator containing 5% CO2 and 95% air, in powder RPMI 1640 medium containing heat inactivated 10% fetal bovine serum (FBS) and antibiotics (100 unit/ml penicillin G100, 100 µg/ml streptomycin), 1% sodium pyruvate, hepes, sodium bicarbonate and beta-mercaptoethanol at 37 °C. The cells produced in 75 cm^2 sterile culture plate were used for the experiment when they covered 60-80% of the culture plate.
(§2) The cells to be used in the experiments were removed from the surface of culture plate where they stuck, when they cover 60-80% of the culture plate, by using trypsin. In order to prevent the effect of trypsin to cells whose removal was monitored under microscope, the medium with the equal amount as trypsin was added and the cell suspension was collected in the centrifuge tube and centrifuged in 1500 rpm for 5 minutes. The supernatant was removed after centrifuge, the medium was added to the cells remained in the bottom part of the tube and pipetted in order to form single cell suspension. The total amount of cells was calculated by using hemocytometer. 50 000 INS-1 beta cells taken from 100% viable single cell suspension, whose cell amount was calculated, were cultured to each of the culture plates with 96 wells. The cultured cells were incubated at 37 °C for 24 hours in order to provide the sticking to the surface of culture plate and growing. After 24 of incubation, the cells were treated with 0.25 mM, 0.5 mM, 0.75 mM, 1 mM, 1.25 mM, 1.5 mM, 1.75 mM, 2 mM, 2.5 mM, 2.75 mM, 3 mM, 3.25 mM, 3.5 mM, 3.75 mM,4 mM, 4.25 mM, 4.5 mM, 4.75 mM, 5 mM palmitic acid which were the chosen doses for palmitic acid. 10 wells including the control group were used in the experiments and 24-hour experiment groups were formed for each of the concentrations.
(§3) After the removal of the grown cells by trypsin, culturing was performed to 96 wells in a way such that there would be 50 000 cells in 200 µl. The cultured cells were incubated at 37 °C for 24 hours in order to provide growing. After 24 h of incubation, the cells were treated with 1nM, 10nM, 100nM curaglutide which were the chosen doses. 10 wells including the control group were used in the experiments and 24-hour experiment groups have been formed for each of the concentrations.
(§4) MTT ([3-(4, 5-dimethyl tiazol-2-il)-2, 5 diphenyl tetrazolium bromide]) test is a drug sensitivity test based on cell culture principal, it aims to assess the cell growth and/or cell death in an indirect way. This frequently used test differs from the other testing methods, with the advantages that it is fast, sensitive, reproducible and easy to apply. The cracking of the tetrazolium ring of MTT paint by mitochondria in living cells underlies the basis of this method. This reaction is catalyzed by succinate dehydrogenase which is a mitochondrial enzyme. MTT is absorbed to cells actively and it is reduced to formazan which is non-soluble in water and has blue-purple color, by the reaction taking place in mitochondria. The MTT reducing properties of the cells are accepted as the cell viability criteria and they are directly proportionate to the paint density and living cell amount obtained by MTT analyze. While living cells with non-damaged mitochondria function are painted with purple color, cells that are dead or with damaged mitochondria function are not painted. Following bringing the formazan crystals formed by incubated living cells into soluble form, reaction product is read […].
(§5) 50 mg MTT (AppliChem A2231 0001) was weighed, it was dissolved by completing 10 ml with RPMI 1640 medium via vortex, with paying attention that there are no not-dissolved paint particles left, and they were obtained by filtering through 0.22 µm filter. It was used by preparing a fresh one each time. […]

[2] = target: dipeptidyl peptidase IV (DPP-IV) (Homo sapiens, UniProt P27487); settings: proteolytic enzyme DPP-IV; cited from earlier work
[3] = Cell viability by MTT test; assay type: cell-based, rat; settings: rat, 24 h, INS-1 cells, control 100%
Experimental: as §1
as §2, with “[…],” for “2 mM, 2.5 mM,”
as §3, §4, §5

INS-1 cells [4] = assay: Cell viability by MTT test; assay type: cell-based, rat; settings: 2 mM palmitic acid, repetitive experiments
Experimental: as §1
as §2, with “[…],” for “2 mM, 2.5 mM,”
as §3, §4, §5

Chain of dipeptidyl peptidase IV (DPP-IV) (P27487 whole entry, species assumed): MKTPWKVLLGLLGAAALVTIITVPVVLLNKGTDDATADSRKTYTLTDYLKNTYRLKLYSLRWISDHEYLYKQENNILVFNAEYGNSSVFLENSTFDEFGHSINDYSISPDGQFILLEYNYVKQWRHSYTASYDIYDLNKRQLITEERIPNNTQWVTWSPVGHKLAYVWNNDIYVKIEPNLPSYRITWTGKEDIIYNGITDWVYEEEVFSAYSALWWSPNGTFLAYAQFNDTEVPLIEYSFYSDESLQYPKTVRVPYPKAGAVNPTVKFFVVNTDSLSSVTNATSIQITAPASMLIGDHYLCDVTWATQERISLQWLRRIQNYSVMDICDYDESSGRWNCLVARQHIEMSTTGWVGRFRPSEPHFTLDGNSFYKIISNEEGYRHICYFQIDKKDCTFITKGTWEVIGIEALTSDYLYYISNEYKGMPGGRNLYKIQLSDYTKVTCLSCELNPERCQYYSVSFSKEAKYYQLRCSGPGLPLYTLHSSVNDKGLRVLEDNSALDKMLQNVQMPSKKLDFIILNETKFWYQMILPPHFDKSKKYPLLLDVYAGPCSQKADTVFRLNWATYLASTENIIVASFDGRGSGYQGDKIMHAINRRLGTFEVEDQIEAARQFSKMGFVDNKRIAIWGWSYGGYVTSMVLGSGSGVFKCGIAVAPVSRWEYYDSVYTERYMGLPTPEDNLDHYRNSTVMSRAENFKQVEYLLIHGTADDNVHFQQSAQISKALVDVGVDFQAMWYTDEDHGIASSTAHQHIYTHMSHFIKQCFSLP

SMILES: CC[C@H](C)[C@H](NC(=O)[C@H](Cc1ccccc1)NC(=O)[C@H](CCC(=O)O)NC(=O)[C@H](CCCCN)NC(=O)[C@H](C)NC(=O)[C@H](C)NC(=O)[C@H](CCC(N)=O)NC(=O)CNC(=O)[C@H](CCC(=O)O)NC(=O)[C@H](CC(C)C)NC(=O)[C@H](Cc1ccc(O)cc1)NC(=O)[C@H](CO)NC(=O)[C@H](CO)NC(=O)[C@@H](NC(=O)[C@H](CC(=O)O)NC(=O)[C@H](CO)NC(=O)[C@@H](NC(=O)[C@H](Cc1ccccc1)NC(=O)[C@@H](NC(=O)CNC(=O)[C@H](CCC(=O)O)NC(=O)[C@H](C)NC(=O)[C@H](Cc1c[nH]cn1)NC(C)=O)[C@@H](C)O)[C@@H](C)O)C(C)C)C(=O)N[C@@H](C)C(=O)N[C@@H](Cc1c[nH]c2ccccc12)C(=O)N[C@@H](CC(C)C)C(=O)N[C@H](C(=O)N[C@@H](CCCCN)C(N)=O)C(C)C [curaglutide]
- cell viability values (INS-1 cells [1]; 1 nM curaglutide alone): 104.50±3.70%
- cell viability values (INS-1 cells [1]; 10 nM curaglutide alone): 121.80±7.30%
- % cell viability values (INS-1 cells [1]; 10 nM curaglutide as curative agent (24 h after 24 h palmitic acid) for 1.75 mM palmitic acid (autophagic dose)): 78.3±1.6%
- % cell viability values (INS-1 cells [1]; 10 nM curaglutide as curative agent for 2 mM palmitic acid (apoptotic dose)): 60.9±4.3%
- % cell viability values (INS-1 cells [1]; 10 nM curaglutide as curative agent for 3 mM palmitic acid (necrotic dose)): 56.5±1.7%
- % cell viability values (INS-1 cells [1]; 10 nM curaglutide as curative agent for 4 mM palmitic acid): 46.6±5.8%
- % cell viability values (INS-1 cells [1]; 10 nM curaglutide as protective against 3 mM palmitic acid (necrotic dose)): 56.4±4.7%
- % cell viability values (INS-1 cells [1]; 10 nM curaglutide as protector (24 h pre-treatment, then with palmitic acid 24 h) against 1.75 mM palmitic acid (autophagic dose)): 129.9±4.6%
- % cell viability values (INS-1 cells [1]; 10 nM curaglutide as protector against 2 mM palmitic acid (apoptotic dose)): 103.9±0.6%
- % cell viability values (INS-1 cells [1]; 10 nM curaglutide as protector against 4 mM palmitic acid): 52.2±4.6%
- cell viability values (INS-1 cells [1]; 100 nM curaglutide alone): 115.20±3.30%
- destruction by DPP-IV [2]: resistant to destruction by DPP-IV

SMILES: CCCCCCCCCCCCCCCC(=O)O [palmitic acid]
- viability at 24 h, 0.25 mM ([3]; 0.25 mM palmitic acid): 92 ± 2.4%
- viability at 24 h, 0.5 mM ([3]; 0.5 mM palmitic acid): 81.5 ± 7.6%
- viability at 24 h, 0.75 mM ([3]; 0.75 mM palmitic acid): 75.6 ± 4.37%
- viability at 24 h, 1 mM ([3]; 1 mM palmitic acid): 74.8 ± 2.35%
- viability at 24 h, 1.25 mM ([3]; 1.25 mM palmitic acid): 72.7 ± 7.7%
- viability at 24 h, 1.5 mM ([3]; 1.5 mM palmitic acid): 69.9 ± 7.4%
- viability at 24 h, 1.75 mM ([3]; 1.75 mM palmitic acid (autophagic dose)): 60.6 ± 11.6%
- viability at 24 h, 2 mM ([3]; 2 mM palmitic acid (apoptotic dose)): 50.1 ± 11%
- viability at 24 h, 2.25 mM ([3]; 2.25 mM palmitic acid): 58.4 ± 11.5%
- viability at 24 h, 2.5 mM ([3]; 2.5 mM palmitic acid): 49.9 ± 3%
- viability at 24 h, 2.75 mM ([3]; 2.75 mM palmitic acid): 62.9 ± 4.3%
- viability at 24 h, 3 mM ([3]; 3 mM palmitic acid (necrotic dose)): 36.5 ± 3.3%
- viability at 24 h, 3.25 mM ([3]; 3.25 mM palmitic acid): 44.1 ± 8.7%
- viability at 24 h, 3.5 mM ([3]; 3.5 mM palmitic acid): 39.4 ± 11.4%
- viability at 24 h, 3.75 mM ([3]; 3.75 mM palmitic acid): 42.9 ± 8.2%
- viability at 24 h, 4 mM ([3]; 4 mM palmitic acid (necrotic dose)): 41 ± 6.6%
- viability at 24 h, 4.25 mM ([3]; 4.25 mM palmitic acid): 44.9 ± 11.8%
- viability at 24 h, 4.5 mM ([3]; 4.5 mM palmitic acid): 37.3 ± 10.5%
- viability at 24 h, 4.75 mM ([3]; 4.75 mM palmitic acid): 35.7 ± 3.7%
- viability at 24 h, 5 mM ([3]; 5 mM palmitic acid): 42.1 ± 4.4%
- cell death (INS-1 cells [4]): 50%

Reference: patent EP3351262A1, “CURAGLUTIDE FOR IN TREATMENT OF PREDIABETES, DIABETES, OBESITY AND METABOLIC DISEASES ASSOCIATED THERETO” (Istanbul Universitesi Rektorlugu, priority 2016, dated 2018)
